Holding throughout (assay type): functional, cell-based
Experiment [1] can be described thus: Cytotoxicity against vincristine-resistant human KB/VJ300 cells.
The next experiment has as its system KB. The experiment can be described thus: Cytotoxicity against vincristine-sensitive human KB cells.
A short description of experiment [2]: Cytotoxicity against vincristine-resistant human KB/VJ300 cells in presence of vincristine.

Values after ≈ are worked out from the molar mass of the structure shown.

In the case of `CC[C@@H]1CN(C)[C@H]2Cc3c([nH]c4ccccc34)C(=O)C[C@H]1[C@H]2C(=O)OC`, the IC50 was above 25 µg/mL in experiment [1], 5.5 µg/mL (≈ 15.5 µM) in the experiment on KB and 9.4 µg/mL in experiment [2].
The matching figures for `COC(=O)[C@@H]1[C@@H]2Cc3c([nH]c4ccccc34)C(=O)C[C@@H]1[C@@]1(CN2C)O[C@H]1C`: above 25 µg/mL, 5.7 µg/mL (≈ 15.5 µM) and above 25 µg/mL.
For `CCC1=CN(C)[C@H]2Cc3c([nH]c4ccccc34)C(=O)C[C@H]1[C@@H]2C(=O)OC`, the IC50 in experiment [1] is above 25 µg/mL; in the experiment with KB, 18.9 µg/mL (≈ 53.6 µM); in experiment [2] it was above 25 µg/mL.
Take `COC(=O)[C@H]1[C@@H]2CC(=O)c3[nH]c4ccccc4c3C[C@@H]1N(C)C=C2C(C)=O`: the IC50 (in experiment [1]; in the experiment on KB; in experiment [2]) was above 25 µg/mL each time.
Consider `C/C=C1\CN2CC[C@@]3(C(=O)Nc4ccccc43)[C@@H]2C[C@H]1C[C@@H]1NCCc2c1[nH]c1ccccc21`, for which the values for the IC50 (in experiment [1]; in the experiment on KB; in experiment [2]) were above 25 µg/mL, 20 µg/mL (≈ 44.2 µM) and 8.4 µg/mL, respectively.
The matching figures for `CC[C@H]1CN(C)[C@H]2Cc3c([nH]c4ccccc34)C(=O)C[C@H]1[C@@H]2C(=O)OC`: above 25 µg/mL, above 25 µg/mL and above 25 µg/mL.
In the case of `C/C=C1/CN(C)[C@H]2Cc3c([nH]c4ccccc34)C(=O)C[C@H]1[C@H]2C(=O)OC`, the IC50 in experiment [1] amounted to 22 µg/mL (≈ 62.4 µM); with KB, 5.6 µg/mL (≈ 15.9 µM); in experiment [2], 13.5 µg/mL.
For `COC(=O)[C@H]1[C@@H]2CC(=O)c3[nH]c4ccccc4c3C[C@@H]1N(C)C=C2C=O`, the IC50 (in experiment [1]; in the experiment on KB; in experiment [2]) was above 25 µg/mL each time.
Turning to `COC(=O)[C@@H]1[C@@H]2CC(=O)c3[nH]c4ccccc4c3C[C@@H]1N(C)C=C2C=O`, the IC50 is above 25 µg/mL in experiment [1], 5.1 µg/mL (≈ 14.5 µM) with KB and above 25 µg/mL in experiment [2].
As to `CC[C@@H]1CN(C)[C@H]2Cc3c([nH]c4ccccc34)C(=O)C[C@@H]1[C@H]2C(=O)OC` [TABERNAEMONTANINE], the IC50 (in experiment [1]; in the experiment with KB; in experiment [2]) was above 25 µg/mL in each case.
`CC[C@]1(O)C[C@H]2CN(CCc3c([nH]c4ccccc34)[C@@](C(=O)OC)(c3cc4c(cc3OC)N(C=O)[C@H]3[C@@](O)(C(=O)OC)[C@H](OC(C)=O)[C@]5(CC)C=CCN6CC[C@]43[C@@H]65)C2)C1` [VINCRISTINE]: the half-maximal inhibitory concentration (IC50) in experiment [1] was found to be 5.4 µg/mL (≈ 6.55 µM); in the experiment with KB it was 0.007 µg/mL (≈ 0.00849 µM).
Regarding `C/C=C1/CN(C)[C@H]2Cc3c([nH]c4ccccc34)C(=O)C[C@H]1[C@@H]2C(=O)OC` [VOBASINE], the IC50 (in experiment [1]; in the experiment on KB; in experiment [2]) was above 25 µg/mL in each case.

By IC50 is commonly meant the midpoint of a concentration-inhibition curve.

The values are drawn from ChEMBL document CHEMBL3352798, “Cytotoxic vobasine, tacaman, and corynanthe-tryptamine bisindole alkaloids from Tabernaemontana and structure revision of tronoharine” (J Nat Prod, 2014).
